Data: patent US6965013B2, “Intermedin and its uses” (The Board of Trustees of the Leland Stanford Junior …, priority 2002, dated 2005)
Ends that are not written are not given here.

Key:
male Sprague-Dawley rats = experiment: Blood pressure and heart rate in normal rats (tail-cuff); format: in vivo, rat; conditions: for systolic blood pressure / heart rate: conscious male Sprague-Dawley rats, intraperitoneal; for systolic blood pressure: monitored 40 min, FIGS. 6A, 6C; for blockage of the hypotensive effect of IMDL: male Sprague-Dawley rats, cotreatment with IMDL, CGRP8-37 in 20-fold excess, FIG. 6C; for heart rate: FIG. 6B
Method: (§1) Effects of intermedin on blood pressure and heart rate in normal and hypertensive rats. Blood pressure measurements in conscious male Sprague-Dawley rats and spontaneously hypertensive rats (SHR)(7-9 weeks of age) were made in animals preadapted to the measurement procedure. Indirect systolic pressure was determined by a programmable NIBP system using the tail-cuff method (Columbus Instruments, Columbus, Ohio). Following attachment of the pressure transducer, rats were left undisturbed for 10 min before baseline measurements that spanned a 15-min interval. Following baseline measurements, rats were injected intraperitoneally with varying doses of hormones. Blood pressure and heart rate were monitored for 40 min at 20-sec intervals. Changes in blood pressure were calculated as the average of thirty measurements performed within each 10-min interval.

[1] = target: T1, L6 skeletal myoblast cells expressing endogenous CRLR (CGRP receptor) (Rattus norvegicus, UniProt Q63118+Q9JJ74); experiment: Stimulation of cAMP production in L6 cells; format: cell-based; conditions: for cAMP production: 30 min treatment, 2.5 mM IBMX, FIG. 2B
T1 construct: expressing endogenous CRLR; host or cells: L6 rat skeletal myoblast cells
Method: (§2) Human neuroblastoma SK-N-MC and rat L6 skeletal myoblast cells expressing endogenous CRLR were obtained from American Type Culture Collection. To estimate adenylyl cyclase activation, SK-N-MC and L6 cells (2×10^5 viable cells/well) were plated in 24-well culture dishes in DMEM/F12 medium one day before treatment. Following 2 h incubation in serum-free DMEM/F12 medium, cells were treated with testing reagents for 30 min in medium containing 0.1% BSA and 2.5 mM 3-isobutyl-1-methylxanthine (IBMX, Sigma-Aldrich Corp.) to prevent hydrolysis of cAMP by phosphodiesterases. Following treatment, cells were lysed and cAMP content determined by a specific radioimmunoassay.

[2] = target: T2, SK-N-MC cells expressing endogenous CRLR (CGRP receptor) (Homo sapiens, UniProt O60894+Q16602); experiment: Stimulation of cAMP production in SK-N-MC cells; format: cell-based; conditions: 30 min treatment, 2.5 mM IBMX, FIG. 2A
T2 construct: expressing endogenous CRLR; host or cells: SK-N-MC human neuroblastoma cells
Method: as §2

C57/BL6 male mice [3] = experiment: Cumulative food intake in fasted mice; format: in vivo, mouse; conditions: mice fasted 20 h, intraperitoneal 100 nM/Kg, 1, 2 and 4 h after treatment, FIG. 7
Method: Analysis of ingestive behavior. Eight-week-old C57/BL6 male mice were housed individually in a regulated environment. Before intraperitoneal injection with testing reagents, mice were deprived of food for 20 h with free access to water. Food intake was measured by placing preweighed pellets in the cage and weighing uneaten pellets at 1, 2, and 4 h after treatment.

C57/BL6 male mice [4] = experiment: Gastric emptying activity in mice; format: in vivo, mouse; conditions: intraperitoneal 100 nM/Kg, 90 min after hormone treatment, FIG. 8
Method: Effects of intermedin on gastric emptying activity. Eight-week-old C57/BL6 male mice deprived of food for 20 h were given food pellets for 90 min before intraperitoneal injection with different hormones or saline. After treatment, mice were deprived of food again and killed 90 min later. The stomach was excised at the pylorus and cardia before weighing. Gastric emptying was calculated by comparing the stomach weight of treated mice to the stomach weight of control mice killed at the time of hormone injection.

[5] = target: T3, CGRP receptor (CRLR) on intact L6 cells (Rattus norvegicus, UniProt Q63118+Q9JJ74); experiment: Receptor-binding assay, displacement of 125I-CGRP from L6 cells; conditions: 37C, 2 h, FIG. 2F
T3 construct: expressing endogenous CRLR; host or cells: L6 rat skeletal myoblast cells
Method: Receptor-binding assay. Ligand-binding assays were done in siliconized microfuge tubes at 37C for 2 h. […] After a 2 h incubation at 37C, the cell-associated ligand was estimated. Radioactivity was determined using a γ-counter (EG&G Wallace, Gaithersburg, Md.).

[6] = tested on: spontaneously hypertensive rats (SHR); experiment: Blood pressure in spontaneously hypertensive rats (tail-cuff); format: in vivo, rat; conditions: male SHR, FIG. 6D; for blockage of the hypotensive effects of IMDL: cotreatment with IMDL
Method: as §1

[7] = humans, administration of ADM, earlier studies; cited from earlier work
[8] = target: T4, endogenous calcitonin receptor (Homo sapiens, UniProt P30988); experiment: cAMP production in 293T cells via the endogenous calcitonin receptor; format: cell-based; conditions: FIG. 3A
T4 construct: through the endogenous calcitonin receptor; endogenous in cells; host or cells: HEK293T
T4 sequence (P30988 25-474): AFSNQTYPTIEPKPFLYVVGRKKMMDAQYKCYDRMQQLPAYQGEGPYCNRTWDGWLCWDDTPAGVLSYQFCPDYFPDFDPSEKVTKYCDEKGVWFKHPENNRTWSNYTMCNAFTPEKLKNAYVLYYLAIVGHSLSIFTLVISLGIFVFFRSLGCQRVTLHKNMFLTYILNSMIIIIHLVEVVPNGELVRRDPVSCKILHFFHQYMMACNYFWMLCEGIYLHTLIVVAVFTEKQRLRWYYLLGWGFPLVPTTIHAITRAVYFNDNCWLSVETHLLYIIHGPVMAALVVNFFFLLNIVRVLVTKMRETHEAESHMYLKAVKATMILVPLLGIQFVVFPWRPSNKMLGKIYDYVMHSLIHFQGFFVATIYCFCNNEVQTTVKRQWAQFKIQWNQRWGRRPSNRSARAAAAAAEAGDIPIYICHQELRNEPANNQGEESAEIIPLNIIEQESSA

T1 sequence (Q63118 24-464): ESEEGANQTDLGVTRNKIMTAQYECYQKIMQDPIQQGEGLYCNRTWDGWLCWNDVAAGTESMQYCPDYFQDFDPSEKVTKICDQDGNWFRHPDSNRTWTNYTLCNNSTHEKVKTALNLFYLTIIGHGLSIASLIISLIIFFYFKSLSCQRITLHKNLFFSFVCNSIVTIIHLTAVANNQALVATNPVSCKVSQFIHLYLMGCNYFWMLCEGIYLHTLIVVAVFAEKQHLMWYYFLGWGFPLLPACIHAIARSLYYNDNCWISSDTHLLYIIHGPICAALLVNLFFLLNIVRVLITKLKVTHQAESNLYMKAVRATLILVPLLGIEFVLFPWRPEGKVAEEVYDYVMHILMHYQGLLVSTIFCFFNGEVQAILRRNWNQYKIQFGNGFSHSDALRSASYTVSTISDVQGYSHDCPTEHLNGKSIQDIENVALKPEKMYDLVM
T1 sequence (Q9JJ74 27-148 partner): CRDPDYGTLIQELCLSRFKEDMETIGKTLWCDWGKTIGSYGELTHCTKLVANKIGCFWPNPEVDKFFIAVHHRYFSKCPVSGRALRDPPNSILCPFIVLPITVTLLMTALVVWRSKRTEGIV
T3 sequence (Q63118 24-464): as the sequence (Q63118 24-464) above
T3 sequence (Q9JJ74 27-148 partner): as the sequence (Q9JJ74 27-148 partner) above
T2 sequence (Q16602 23-461): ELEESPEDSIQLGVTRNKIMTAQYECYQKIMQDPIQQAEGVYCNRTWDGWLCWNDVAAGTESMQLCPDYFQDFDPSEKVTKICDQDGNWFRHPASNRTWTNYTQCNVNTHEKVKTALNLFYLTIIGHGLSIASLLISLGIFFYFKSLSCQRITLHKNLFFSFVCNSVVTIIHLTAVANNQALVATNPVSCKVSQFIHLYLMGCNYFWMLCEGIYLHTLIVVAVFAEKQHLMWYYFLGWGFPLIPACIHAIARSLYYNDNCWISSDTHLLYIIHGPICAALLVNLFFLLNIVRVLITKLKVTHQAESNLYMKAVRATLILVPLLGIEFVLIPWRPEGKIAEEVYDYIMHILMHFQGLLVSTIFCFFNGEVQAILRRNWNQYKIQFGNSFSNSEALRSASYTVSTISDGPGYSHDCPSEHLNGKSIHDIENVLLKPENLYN
T2 sequence (O60894 27-148 partner): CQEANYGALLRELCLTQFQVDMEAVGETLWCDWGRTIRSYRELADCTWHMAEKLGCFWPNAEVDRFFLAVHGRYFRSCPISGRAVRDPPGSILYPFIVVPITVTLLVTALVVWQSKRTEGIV

| cAMP production [1] | Substance | systolic blood pressure (male Sprague-Dawley rats) | heart rate (male Sprague-Dawley rats) | cumulative food intake (C57/BL6 male mice [3]) | gastric emptying activity (C57/BL6 male mice [4]) | other results |
| --- | --- | --- | --- | --- | --- | --- |
| no effect | IMD17-47: truncated amidated intermedin fragment, putative C-terminal receptor-binding domain (VQNLSHRLWQLMGPAGRQDSAPVDPSSPHSY-NH2) | no effect | – | – | – | blockage of the hypotensive effect of IMDL (male Sprague-Dawley rats): blocked the hypotensive effects of IMDL; blockage of the stimulatory effect of intermedin on cAMP production ([1]; cotreatment with intermedin, IMD17-47 at 1 μM, FIGS. 2C, 2D): functional antagonist of intermedin action; cAMP production [2]: no effect |
| stimulated cAMP production | adrenomedullin [ADM, reference compound] | dose-dependently suppressed systolic blood pressure | Increase in heart rate | decreased food intake | suppressed the gastric emptying activity, but with a lower potency | circulating prolactin levels [7]: increases circulating prolactin levels |
| – | CGRP8-37: N-terminally truncated CGRP, a CGRP receptor antagonist (VTHRLAGLLSRSGGVVKNNFVPTNVGSKAF; ends and bridges not checked; UniProt P06881 90-119, looked up, fragment) [reference compound] | – | – | – | – | blockage of the hypotensive effect of IMDL (male Sprague-Dawley rats): significantly decreased the hypotensive effects of IMDL; blockage of the hypotensive effects of IMDL [6]: abolished |
| – | SRP/urocortin II: type II CRH receptor-selective agonist, known gastric emptying suppression peptide (IVLSLDVPIGLLQILLEQARARAAREQATTNARILARVGHC; Urocortin-2; UniProt Q96RP3 72-112, looked up) [reference compound] | – | – | decreased food intake | Reduction of gastric emptying | – |
| – | ADM22-52: low affinity ADM22-52 fragment (TVQKLAHQIYQFTDKDKDNVAPRSKISPQGY; ends and bridges not checked; UniProt P35318 116-146, looked up, fragment) | – | – | – | – | blockage of the hypotensive effects of IMDL [6]: minimal effect |
| no effect | prointermedin55-85: 31-amino-acid peptide from the prepro-region of human intermedin (PRPVVWKLHRALQAQRGAGLAPVMGQPLRDG; pro-form; UniProt Q7Z4H4 55-85, looked up, fragment) | no effect | – | – | – | cAMP production [2]: no effect |
| no effect | nonamidated form of intermedin: nonamidated form of the synthetic intermedin peptide | – | – | – | – | – |
| – | calcitonin | – | – | – | – | cAMP production [8]: increases cAMP dose-dependently |

| Substance | cAMP production [1] | systolic blood pressure (male Sprague-Dawley rats) | heart rate (male Sprague-Dawley rats) | cumulative food intake (C57/BL6 male mice [3]) | gastric emptying activity (C57/BL6 male mice [4]) | other results |
| --- | --- | --- | --- | --- | --- | --- |
| IMDS: 40-amino-acid amidated mature human intermedin peptide, SEQ ID NO:5 residues 8-47 | dose-dependent increases of cAMP production | dose-dependently suppressed blood pressure | increased heart rate | decreased food intake | Reduction of gastric emptying | competitive displacement of 125I-CGRP binding [5]: displaced ^125I-CGRP binding |
| IMDL: 47-amino-acid amidated mature human intermedin peptide, SEQ ID NO:5 residues 1-47 | dose-dependent increases of cAMP production | dose-dependently suppressed blood pressure | increased heart rate | decreased food intake | Reduction of gastric emptying | competitive displacement of 125I-CGRP binding [5]: displaced ^125I-CGRP binding; blood pressure ([6]; intraperitoneal): reduced blood pressure |
